Assay results taken from ChEMBL document CHEMBL1201862, “PubChem BioAssay data set” (2004).
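Five concentrations, 48 hours, 96-well plates. GI50 = concentration required for 50% inhibition of growth.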 The source made the active and inactive calls. Cut-off read from the data, not from the text of the source: active = GI50 up to about 1.1 µM and inactive = higher.

Tests used:
Experiment in all cases: NCI-60 cell line screen, 48 h
[1] = tested on: M14
[2] = tested on: NCI-H522
[3] = tested on: MCF7
[4] = tested on: OVCAR-4
[5] = tested on: OVCAR-8
[6] = tested on: NCI-H23
[7] = tested on: HCT-15
[8] = tested on: SW-620
[9] = tested on: EKVX
[10] = tested on: SN12C
[11] = tested on: DU-145
[12] = tested on: OVCAR-5
[13] = tested on: SK-MEL-5
[14] = tested on: UACC-62
[15] = tested on: Malme-3M
[16] = tested on: U-251
[17] = tested on: T47D
[18] = tested on: SK-OV-3
[19] = tested on: MDA-MB-435
[20] = tested on: SK-MEL-28
[21] = tested on: Hs-578T
[22] = tested on: NCI/ADR-RES
[23] = tested on: SF-295
[24] = tested on: SR
[25] = tested on: RXF 393
[26] = tested on: CCRF-CEM
[27] = tested on: UACC-257
[28] = tested on: TK-10
[29] = tested on: BT-549
[30] = tested on: HCT-116
[31] = tested on: SF-539
[32] = tested on: PC-3
[33] = tested on: COLO 205
[34] = tested on: MOLT-4
[35] = tested on: SNB-19
[36] = tested on: CAKI-1
[37] = tested on: KM12
[38] = tested on: MDA-N
[39] = tested on: RPMI-8226
[40] = tested on: SNB-75
[41] = tested on: SF-268
[42] = tested on: HT-29
[43] = tested on: ACHN
[44] = tested on: 786-0
[45] = tested on: SK-MEL-2
[46] = tested on: LOX IMVI
[47] = tested on: A549
[48] = tested on: NCI-H226
[49] = tested on: HCC 2998
[50] = tested on: UO-31
[51] = tested on: OVCAR-3
[52] = tested on: HL-60
[53] = tested on: A498
[54] = tested on: HOP-62
[55] = tested on: K562
[56] = tested on: IGROV-1
[57] = tested on: HOP-92
[58] = tested on: NCI-H460
[59] = tested on: MDA-MB-231

Measured: GI50

CC1(C(=O)O)CCC2(C)CCC3(C)C(=CC(=O)C4C5(C)CCC(O)C(C)(C)C5CCC43C)C2C1 (configuration not stated)
inactive: [1] 36.3 µM | [2] 22.7 µM | [3] 50.2 µM | [4] 42.8 µM | [5] 43.8 µM | [6] 21.2 µM | [8] 37.5 µM | [9] 34.9 µM | [10] 41.8 µM | [11] 29.6 µM | [12] 29.6 µM | [13] 24.4 µM | [14] 21 µM | [15] > 100 µM | [16] 43.1 µM | [17] 30.8 µM | [18] 43.4 µM | [19] 35.6 µM | [20] 22.1 µM | [21] 28.6 µM | [22] 46 µM | [23] 26.5 µM | [24] 24.3 µM | [25] 36.1 µM | [26] 30.9 µM | [27] 33.9 µM | [28] 35.7 µM | [29] 11.7 µM | [30] 23.4 µM | [31] 17.6 µM | [32] 36.1 µM | [33] 38.8 µM | [34] 36.2 µM | [35] 20.6 µM | [36] 24.4 µM | [37] 18.3 µM | [38] 38.7 µM | [39] > 10 µM | [40] 33.8 µM | [41] 27.4 µM | [42] 20.2 µM | [43] 22.6 µM | [44] 42.1 µM | [45] 21.8 µM | [46] 22.6 µM | [47] 40.3 µM | [48] 25.8 µM | [49] 23.1 µM | [50] 23.6 µM | [51] 19.3 µM | [52] 24.6 µM
34.8 µM: [7]

COc1cc(NC(C)=O)ccc1C(=O)N/N=C/c1ccco1
inactive: [1] > 100 µM | [2] > 100 µM | [3] 52.2 µM | [4] > 100 µM | [5] > 100 µM | [6] > 100 µM | [8] > 100 µM | [9] > 100 µM | [10] > 100 µM | [53] > 100 µM | [11] > 100 µM | [12] > 100 µM | [13] 44.5 µM | [14] > 100 µM | [15] > 100 µM | [17] > 100 µM | [18] > 100 µM | [19] > 100 µM | [54] > 100 µM | [20] > 100 µM | [21] > 100 µM | [55] > 100 µM | [22] > 100 µM | [23] > 100 µM | [24] 26.7 µM | [25] > 100 µM | [26] 80.2 µM | [56] > 100 µM | [29] > 100 µM | [30] > 100 µM | [31] 44.2 µM | [32] > 100 µM | [33] 31.8 µM | [34] 31.3 µM | [35] > 100 µM | [36] 65 µM | [37] > 100 µM | [38] > 100 µM | [39] 77.6 µM | [40] > 100 µM | [41] > 100 µM | [42] > 100 µM | [43] 63 µM | [44] > 100 µM | [45] > 100 µM | [46] 97.5 µM | [47] > 100 µM | [50] 67.1 µM | [51] > 100 µM | [57] > 100 µM | [52] 46.5 µM
> 100 µM: [7]

CC(=O)C1(C(=O)C(=[N+]=[N-])S(=O)(=O)c2ccccc2)CC1
inactive: [1] > 100 µM | [2] > 100 µM | [3] > 100 µM | [5] > 100 µM | [6] > 100 µM | [8] > 100 µM | [9] > 100 µM | [10] > 100 µM | [11] > 100 µM | [12] > 100 µM | [13] > 100 µM | [14] > 100 µM | [15] > 100 µM | [16] > 100 µM | [58] > 100 µM | [19] > 100 µM | [54] > 100 µM | [20] > 100 µM | [21] > 100 µM | [55] 80.4 µM | [22] > 100 µM | [23] > 100 µM | [24] > 100 µM | [25] > 100 µM | [26] 40.2 µM | [59] > 100 µM | [27] > 100 µM | [56] > 100 µM | [28] > 100 µM | [29] > 100 µM | [30] > 100 µM | [31] > 100 µM | [32] > 100 µM | [33] > 100 µM | [34] 83.8 µM | [35] > 100 µM | [37] > 100 µM | [38] > 100 µM | [39] 83.2 µM | [40] > 100 µM | [41] > 100 µM | [42] > 100 µM | [43] > 100 µM | [44] > 100 µM | [45] > 100 µM | [46] > 100 µM | [47] > 100 µM | [48] > 100 µM | [49] > 100 µM | [50] > 100 µM | [51] > 100 µM | [52] 74.1 µM
> 100 µM: [7]
